This experiment concerns Botrytis cinerea (ATCC 90479). The experiment in a line: Botrytis cinerea hyphal growth inhibition on PDA agar (colony diameter), adjuvant with or without pyraclostrobin. The class given is cell-based. The conditions noted are these: for inherent fungicidal activity on their own: adjuvant alone, at any of the concentrations tested; for Fold Change in Growth Inhibition: adjuvant concentration 50 μg/mL (Ia-Ie) or 64 μg/mL (If, Ig), 48 hours at 22° C., relative to fungicide alone; for fold increase in fungicidal activity compared to pyraclostrobin alone: pyraclostrobin at 0.06 μg/mL, against B. cinerea. The procedure: Percent Inhibition-The percent inhibition will be understood to represent the amount the fungicide and/or adjuvant that inhibits the visible growth of the microorganism after 48 hours incubation at 22° C. relative to vehicle treated controls. This is calculated using the following formula:
ØC=diameter of the colony grown on agar supplemented with vehicle (i.e. vehicle treated control), and
ØT=diameter of the colony grown on agar supplemented with fungicide and/or adjuvant formulated in an appropriate vehicle (i.e., solvent such as water C2H5OH, CH3OH, CH3CN, DMSO).
Fold Change—The fold change is a measure of the adjuvant/fungicide combination in inhibiting a microorganism compared to the fungicide alone. This indicates how the adjuvant performs relative to the fungicide alone. This is calculated using the following formula:
where: • INHAF=percent inhibition of fungal growth when treated with fungicide and adjuvant, and • INHF=percent inhibition of fungal growth when treated with fungicide alone.
Botrytis cinerea (ATCC 90479) was cultured on Difco Potato Dextrose Agar (PDA) for 7 days with diurnal UV cycles (12 h UV light and 12 h dark). Spores were harvested in a buffered, sterile saline solution (w/v: 0.9% NaCl with 1% Tween 80) and counted using a haemocytometer. The spore suspension was adjusted to a final concentration of 8.5x10^6 spores/mL to create a standardised inoculum.
To prepare hyphal fragments for adjuvant testing, 8.5x10^4 spores were used to inoculate 10 mL of Difco Potato Dextrose Broth in a 150×25 mm tube. The tube was incubated at 220 RPM, 22° C. for 48 hours.
To create hyphal fragments from the culture, the culture was transferred to a 50 mL plastic conical tube containing approximately 20 sterile 5 mm diameter glass beads and vortexed for 5 min. After vortexing the tube was allowed to stand for 5 min to allow large mycelial clumps to settle and then the top layer containing hyphal fragments was removed and used as inocula for growth inhibition assays.
Fungicides and adjuvants were dissolved in methanol and added to molten PDA (˜50° C.) and then the agar was distributed in the wells of 12 well multiwell plates (1 mL/well). The plates were cooled to room temperature and 10 μL of hyphal inoculum was added to the centre of each well. The plates were incubated at 22° C. for 48 hours and then the colony diameter was measured using a digital caliper. The biological growth control consisted of hyphae and vehicle (0.07% methanol), the negative control was media and vehicle (0.07% methanol).

Where [1] appears, read: with Pyra (pyraclostrobin) 0.0313 μg/mL.
Setting [2] is: with Pyra (pyraclostrobin) 0.0625 μg/mL.

For `O=C1NC(Cc2ccccc2)C(=O)N2CCCCC12` (centres unmarked) [DKP (If), cyclo (-Phe-Pip) diketopiperazine], the “inherent fungicidal activity on their own” value (“inherent fungicidal activity” for short) was “did not demonstrate any inherent fungicidal activity”. Under setting [1], the “Fold Change in Growth Inhibition” value was 1.34. Moreover, under setting [2], the “Fold Change in Growth Inhibition” value was determined as 1.28.
For `CN1CC(=O)N(C)C(Cc2ccccc2)C1=O` (centres unmarked) [DKP (Id)], in that order: “did not demonstrate any inherent fungicidal activity”, 1.09 and 1.35.
The corresponding values for `O=C1NC(Cc2ccccc2)C(=O)N2CCCC12` (centres unmarked) [DKP (Ia)] are “did not demonstrate any inherent fungicidal activity”, 1.32 and 1.15.
For the compound `CN1C(=O)C2CCCN2C(=O)C1Cc1ccccc1` (centres unmarked) [DKP (Ic)], the “inherent fungicidal activity” value is listed as “did not demonstrate any inherent fungicidal activity” and the “fold increase in fungicidal activity compared to pyraclostrobin alone” value was determined as 1.52 fold. For the same compound, the “Fold Change in Growth Inhibition” value under setting [1] is 1.23. Besides, under setting [2], the “Fold Change in Growth Inhibition” value was 1.52.
Regarding `O=C1NC(Cc2ccccc2)C(=O)N2CCC=C12` (centres unmarked) [DKP (Ig), cyclo (-Phe-dhPro) diketopiperazine], the “inherent fungicidal activity” value was “did not demonstrate any inherent fungicidal activity”. The “Fold Change in Growth Inhibition” value under setting [1] worked out at 1.22. The “Fold Change in Growth Inhibition” value under setting [2] is recorded as 1.27.
For `O=C1CNC(=O)C(Cc2ccccc2)N1` (centres unmarked) [DKP (Ib)], the “inherent fungicidal activity” value is on record as “did not demonstrate any inherent fungicidal activity”. The “Fold Change in Growth Inhibition” value under setting [1] amounted to 1.14. For the same compound, the “Fold Change in Growth Inhibition” value under setting [2] worked out at 1.45.
With `O=C1NCC(=O)N2CCCC12` (centres unmarked) [DKP (Ie)], the “inherent fungicidal activity” value is “did not demonstrate any inherent fungicidal activity” and the “fold increase in fungicidal activity compared to pyraclostrobin alone” value is listed as 1.56 fold. Further, the “Fold Change in Growth Inhibition” value under setting [1] is given as 0.96. Further, the “Fold Change in Growth Inhibition” value under setting [2] is 1.56.
